# Test system: castrated male Sprague-Dawley rats
# Experiment: Anabolic and androgenic activity of SARM panel in castrated male rats, sc 1 mg/d for 14 d
# Assay type: in vivo, rat
# Details: 1 mg/d sc 14 d
# Description: The in vivo pharmacological activity of each synthetic AR ligand (listed in Table 4, below) was examined in five male Sprague-Dawley rats weighing approximately 200 g. Animals were castrated via a scrotal incision under anesthesia 24 h before drug treatments and received daily sc injections of the compound of interest at a dose rate of 1 mg/d for 14 d. All compounds of interest were freshly dissolved in vehicle containing dimethylsulfoxide (5%, vol/vol) in polyethylene glycol 300 before dose administration. An additional two groups of animals with or without castration received vehicle only and served as castrated or intact control groups, respectively. Animals were killed at the end of the treatment. Plasma samples were collected and stored at −80° C. for future use. The ventral prostate, seminal vesicles, and levator ani muscle were removed, cleared of extraneous tissue, and weighed. All organ weights were normalized to body weight and compared. The weights of prostate and seminal vesicles were used to evaluate androgenic activity, whereas the levator ani muscle weight was used as a measure of anabolic activity. […] The results are graphically depicted in FIGS. 3 and 4.
Compound,Levator ani weight versus intact control,Levator ani agonism,Ventral prostate weight
C[C@](O)(COc1ccc([N+](=O)[O-])c(F)c1)C(=O)Nc1ccc([N+](=O)[O-])c(C(F)(F)F)c1 [C-11],same as or in excess of intact control,–,–
C[C@](O)(COc1ccc(Cl)cc1F)C(=O)Nc1ccc([N+](=O)[O-])c(C(F)(F)F)c1 [C-8],same as or in excess of intact control,–,–
C[C@](O)(COc1ccc(Cl)c(F)c1)C(=O)Nc1ccc([N+](=O)[O-])c(C(F)(F)F)c1 [C-6],same as or in excess of intact control,–,–
C[C@](O)(COc1ccc(Cl)c(Cl)c1)C(=O)Nc1ccc([N+](=O)[O-])c(C(F)(F)F)c1 [C-10],same as or in excess of intact control,–,–
C[C@](O)(COc1cc(Cl)c(Cl)cc1Cl)C(=O)Nc1ccc([N+](=O)[O-])c(C(F)(F)F)c1 [C-22],–,> 75 % of intact control,< 25 % of intact control
C[C@](O)(COc1cc(F)c(F)cc1F)C(=O)Nc1ccc([N+](=O)[O-])c(C(F)(F)F)c1 [C-18],same as or in excess of intact control,–,–
C[C@](O)(COc1ccc(F)cc1)C(=O)Nc1ccc([N+](=O)[O-])c(C(F)(F)F)c1 [S-1],–,> 75 % of intact control,< 25 % of intact control
C[C@](O)(COc1ccc(F)cc1F)C(=O)Nc1ccc([N+](=O)[O-])c(C(F)(F)F)c1 [C-1],–,> 75 % of intact control,< 25 % of intact control
C[C@](O)(COc1ccc(F)c(Cl)c1)C(=O)Nc1ccc([N+](=O)[O-])c(C(F)(F)F)c1 [C-4],–,> 75 % of intact control,< 25 % of intact control
C[C@](O)(COc1c(F)c(F)c(F)c(F)c1F)C(=O)Nc1ccc([N+](=O)[O-])c(C(F)(F)F)c1 [C-23],–,> 75 % of intact control,< 25 % of intact control
C[C@](O)(COc1ccc(F)c(F)c1)C(=O)Nc1ccc([N+](=O)[O-])c(C(F)(F)F)c1 [C-3],same as or in excess of intact control,–,–

# Reference: patent publication US9278914B2, “SARMs and method of use thereof” (UNIVERSITY OF TENNESSEE RESEARCH FOUNDATION, priority 2004, dated 2016)
